Data taken from US6562828B1, “Amidine compounds” (Japan Tobacco Inc., priority 1998, dated 2003).
Structures can show the parent of a compound that is named as a salt.

Legend:
Human FXa = target: T1, Human FXa (Homo sapiens, UniProt P00742); assay: Determination of anti-factor Xa (FXa) activity, synthetic substrate S-2222; format: biochemical; conditions: S-2222, 37° C., pH 8.4, read-out: Experimental Example 1: anti-FXa activity, IC50
T1 construct: Human FXa [Enzyme research Laboratories (USA)] enzyme; purchased Enzyme Research Laboratories (USA)
T1 sequence (P00742 235-488 limits assumed): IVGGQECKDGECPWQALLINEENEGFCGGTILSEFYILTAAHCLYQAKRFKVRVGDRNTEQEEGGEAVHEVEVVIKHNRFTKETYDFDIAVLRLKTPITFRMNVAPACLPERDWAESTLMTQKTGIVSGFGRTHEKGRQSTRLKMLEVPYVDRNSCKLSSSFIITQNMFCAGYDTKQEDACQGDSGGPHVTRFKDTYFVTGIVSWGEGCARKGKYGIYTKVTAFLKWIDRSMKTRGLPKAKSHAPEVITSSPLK
T1 sequence (P00742 41-179 partner limits assumed): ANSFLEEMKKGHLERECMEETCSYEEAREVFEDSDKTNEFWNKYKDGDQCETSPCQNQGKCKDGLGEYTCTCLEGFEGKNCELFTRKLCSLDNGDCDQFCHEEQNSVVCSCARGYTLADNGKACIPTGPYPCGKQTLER
Experimental: Determination of Anti-factor Xa (FXa) Activity
Human FXa [Enzyme research Laboratories (USA)] enzyme (40 μl, 0.16U/ml) and test compounds (40 l) adjusted to various concentrations were incubated in 0.1M Tris (Tris-hydroxymethyl-aminomethane) buffer (pH 8.4) containing 0.2M sodium chloride (herein to be referred to as 0.1 M tris-0.2M NaCl buffer) (40 μl) at 37° C. for 10 min. A synthetic substrate S-2222 (Daiichi Pure Chemical (Tokyo, Japan), 40 μl) adjusted to 0.8 mM was added and the mixture was incubated at 37° C. for 10 min. The reaction was stopped by addition of 60% acetic acid (40 μl) and absorbance at 405 nm was measured by Model 3550 (BIO-RAD). For the control, the solvent was used instead of the test compound.

Human FIIa = target: T2, Human FIIa (Homo sapiens, UniProt P00734); assay: Determination of anti-factor IIa (FIIa) activity, synthetic substrate S-2238; format: biochemical; conditions: S-2238, 37° C., pH 8.4, read-out: Experimental Example 2: anti-FIIa activity, IC50
T2 construct: purchased Sigma

IC50 (Human FXa)	IC50 (Human FIIa)	Structure (SMILES)
60 nM	> 10000 nM	N=C(N)N1CCc2ccc(OCC3CCN(c4ccncc4)CC3)cc2C1 [Example 1, 7-[1-(Pyridin-4-yl)piperidin-4-ylmethoxy]-1,2,3,4-tetrahydroisoquinoline-2-carboxamidine Dihydrochloride]
400 nM	> 10000 nM	N=C(N)N1CCc2ccc(OCC3CCN(c4ccnc5ccccc45)CC3)cc2C1 [Example 2, 7-[1-(Quinolin-4-yl)piperidin-4-ylmethoxy]-1,2,3,4-tetrahydroisoquinoline-2-carboxamidine Dihydrochloride]
600 nM	> 10000 nM	N/C(=N/O)N1CCc2ccc(OCC3CCN(c4ccncc4)CC3)cc2C1 [Example 4, 7-[1-(Pyridin-4-yl)piperidin-4-ylmethoxy]-1,2,3,4-tetrahydroisoquinoline-2-carboxamide Oxime Dihydrochloride]
80 nM	> 10000 nM	CCOC(=O)C1(COc2ccc3c(c2)CN(C(=N)N)CC3)CCN(c2ccncc2)CC1 [Example 6, 4-(2-Amidino-1,2,3,4-tetrahydroisoquinolin-7-yloxymethyl)-1-(pyridin-4-yl)piperidine-4-carboxylic Acid Ethyl Ester Dihydrochloride]
700 nM	> 10000 nM	CCOC(=O)C1(COc2ccc3c(c2)CN(C(=N)N)CC3)CCN(c2cc(C)nc(C)c2)CC1 [Example 10, 4-(2-Amidino-1,2,3,4-tetrahydroisoquinolin-7-yloxymethyl)-1-(2,6-dimethylpyridin-4-yl)piperidine-4-carboxylic Acid Ethyl Ester Dihydrochloride]
300 nM	> 10000 nM	Cc1cc(N2CCC(COc3ccc4c(c3)CN(C(=N)N)CC4)(C(=O)O)CC2)cc(C)n1 [Example 11, 4-(2-Amidino-1,2,3,4-tetrahydroisoquinolin-7-yloxymethyl)-1-(2,6-dimethylpyridin-4-yl)piperidine-4-carboxylic Acid Dihydrochloride]
600 nM	–	CCOC(=O)C1(COc2ccc3c(c2)CN(C(=N)N)CC3)CCN(c2ccnc(C)c2)CC1 [Example 12, 4-(2-Amidino-1,2,3,4-tetrahydroisoquinolin-7-yloxymethyl)-1-(2-methylpyridin-4-yl)piperidine-4-carboxylic Acid Ethyl Ester Dihydrochloride]
200 nM	> 10000 nM	Cc1cc(N2CCC(COc3ccc4c(c3)CN(C(=N)N)CC4)(C(=O)O)CC2)ccn1 [Example 13, 4-(2-Amidino-1,2,3,4-tetrahydroisoquinolin-7-yloxymethyl)-1-(2-methylpyridin-4-yl)piperidine-4-carboxylic Acid Dihydrochloride]
100 nM	> 10000 nM	N=C(N)N1CCc2ccc(OCC3(C(=O)O)CCN(c4ccncn4)CC3)cc2C1 [Example 14, 4-(2-Amidino-1,2,3,4-tetrahydroisoquinolin-7-yloxymethyl)-1-(pyrimidin-4-yl)piperidine-4-carboxylic Acid Dihydrochloride]
200 nM	–	CCOC(=O)C1(CCOc2ccc3c(c2)CN(C(=N)N)CC3)CCN(c2ccncc2)CC1 [Example 15, 4-[2-(2-Amidino-1,2,3,4-tetrahydroisoquinolin-7-yloxy)ethyl]-1-(pyridin-4-yl)piperidine-4-carboxylic Acid Ethyl Ester Dihydrochloride]
200 nM	> 10000 nM	N=C(N)N1CCc2ccc(OCCC3(C(=O)O)CCN(c4ccncc4)CC3)cc2C1 [Example 16, 4-[2-(2-Amidino-1,2,3,4-tetrahydroisoquinolin-7-yloxy)ethyl]-1-(pyridin-4-yl)piperidine-4-carboxylic Acid Dihydrochloride]
700 nM	> 10000 nM	N=C(N)N1CCc2ccc(OCC3CCN(CCO)CC3)cc2C1 [Example 21, 7-[1-(2-Hydroxyethyl)piperidin-4-ylmethoxy]-1,2,3,4-tetrahydroisoquinoline-2-carboxamidine Dihydrochloride]
800 nM	> 10000 nM	N=C(N)N1CCc2ccc(OCC3CCN(Cc4ccncc4)CC3)cc2C1 [Example 22, 7-[1-(Pyridin-4-ylmethyl)piperidin-4-ylmethoxy-1,2,3,4-tetrahydroisoquinoline-2-carboxamidine Trihydrochloride]
500 nM	> 10000 nM	CC(=N)N1CCC(COc2ccc3c(c2)CN(C(=N)N)CC3)CC1 [Example 29, 7-(1-Acetimidoylpiperidin-4-ylmethoxy)-1,2,3,4-tetrahydroisoquinoline-2-carboxamidine Dihydrochloride]
400 nM	> 10000 nM	N=C(N)N1CCc2ccc(OCC3CCN(C(=N)Cc4ccccc4)CC3)cc2C1 [Example 30, 7-(1-Phenylacetimidoylpiperidin-4-ylmethoxy)-1,2,3,4-tetrahydroisoquinoline-2-carboxamidine Dihydrochloride]
400 nM	> 10000 nM	N=C(N)N1CCc2ccc(OCC3CCN(c4ccc(NC(=O)c5ccccc5)cn4)CC3)cc2C1 [Example 32, N-[2-[4-(2-Amidino-1,2,3,4-tetrahydroisoquinolin-7-yloxymethyl)-piperidin-1-yl]pyridin-5-yl]benzamide Dihydrochloride]
300 nM	> 10000 nM	CCOC(=O)/C=C/c1cnccc1N1CCC(COc2ccc3c(c2)CN(C(=N)N)CC3)CC1 [Example 33, 3-[4-[4-(2-Amidino-1,2,3,4-tetrahydroisoquinolin-7-yloxymethyl)-piperidin-1-yl]pyridin-3-yl]-2-propenoic Acid Ethyl Ester Dihydrochloride]
200 nM	> 10000 nM	COC(=O)c1cnccc1N1CCC(COc2ccc3c(c2)CN(C(=N)N)CC3)CC1 [Example 34, 4-[4-(2-Amidino-1,2,3,4-tetrahydroisoquinolin-7-yloxymethyl)-piperidin-1-yl]pyridine-3-carboxylic Acid Methyl Ester Dihydrochloride]
40 nM	> 10000 nM	N#CC1(CCOc2ccc3c(c2)CN(C(=N)N)CC3)CCN(c2ccncc2)CC1 [Example 37, 7-[2-[4-Cyano-1-(pyridin-4-yl)piperidin-4-yl]ethoxy]-1,2,3,4-tetrahydroisoquinoline-2-carboxamidine Dihydrochloride]
500 nM	> 10000 nM	N=C(N)c1ccc2ccc(OCC3(C(=O)O)CCN(c4ccncc4)CC3)c(Cl)c2c1 [Example 39, 4-(2-Amidino-8-chloronaphthalen-7-yloxymethyl)-1-(pyridin-4-yl)piperidine-4-carboxylic Acid Dihydrochloride]
200 nM	–	CCOC(=O)CCc1cnccc1N1CCC(COc2ccc3c(c2)CN(C(=N)N)CC3)CC1 [Example 88, 3-[4-[4-(2-Amidino-1,2,3,4-tetrahydroisoquinolin-7-yloxymethyl)piperidin-1-yl]pyridin-3-]propionic Acid Ethyl Ester Dihydrochloride]
80 nM	–	N=C(N)c1ccc2c(c1)nc(CN(C(=O)c1ccc(C(=O)O)cc1)c1ccc(OC3CCN(C(=N)NCc4ccccc4)CC3)cc1)n2CC(=O)NC1CCCCC1 [Example 110, N-[5-Amidino-1-(cyclohexylcarbamoylmethyl)benzimidazol-2-ylmethyl]-N-[4-[1-[amino(benzylinino)methyl]piperidin-4-yloxy]phenyl]carbamoylbenzoic Acid Dihydrochloride]
